Reference: US20140283583A1, “SYSTEM FOR PIPELINE DRYING AND FREEZING POINT SUPPRESSION” (WEATHERFORD/LAMB, INC., priority 2007, published 2014)

Experiments:
[1] = system: Mysidopsis bahia; conditions: 800 mg/L
[2] = system: Menidia beryllina; conditions: 800 mg/L
[3] = FIG. 1, compared with methanol and ethylene glycol
[4] = 50% w/w solution in water

O=C[O-].[K+] [potassium formate]
larval survival and growth toxicity testing (normality tests) [1]: passed the normality tests
larval survival and growth toxicity testing (normality tests) [2]: passed the normality tests
methane hydrate suppression [3]: between ethylene glycol and methanol
freezing point [4]: around −60 °C
